Measurements from patent publication US20240269304A1, “BCL-XL INHIBITOR ANTIBODY-DRUG CONJUGATES AND METHODS OF USE THEREOF” (Novartis AG, priority 2020, published 2024).
Read-outs that look alike come from different tables or passages of the source.

Experiments:
HCC1569 cells = experiment: CellTiterGlo (CTG) cell viability, 120 h, HCC1569, single agent or with 10 nM Paclitaxel; format: cell-based; conditions: Homo sapiens
Protocol: HCC1569 cells were cultivated in RPMI supplemented with 10% heat inactivated fetal bovine serum, penicillin (100 IU/ml), streptomycin (100 μg/ml) and L-glutamine (2 mM). Cell lines were cultured at 37° C. in a humidified atmosphere containing 5% 002. […] Effects of ADCs on cell viability were assessed after 5 days of incubation at 37° C./5% CO2 by quantification of cellular ATP levels using CellTiterGlo at 75 μL reagent/well. All the conditions were tested in triplicates. Luminescence was quantified on a multipurpose plate reader. IC50s were calculated using standard four-parametric curve fitting.

H1650 cells = experiment: CellTiterGlo (CTG) cell viability, 3D, 120 h, H1650 (Example 8); format: cell-based, human; conditions: Homo sapiens, NCI-H1650, H1650 3D
NCI-H1650 = experiment: CellTiter Glo 3D spheroid proliferation/survival, 5 days, NCI-H1650, 0.0005-500 nM (Example 10); format: cell-based, human; conditions: spheroids; for IC50 / NCI-H1650 IC50 (nM): 0.0005-500 nM
Protocol: One target was assessed: EGFR.
The ability of the BCL-xL antibody drug conjugates to inhibit cell proliferation and survival was assessed using the Promega CellTiter-Glo® proliferation assay.
Cell lines were cultured in media that is optimal for their growth at 5% CO2, 37° C. in a tissue culture incubator. Prior to seeding for the proliferation assay, the cells were split at least 2 days before the assay to ensure optimal growth density. […] Cell viability and cell density were determined using a cell counter (Vi-Cell XR Cell Viability Analyzer, Beckman Coulter).
Cells were seeded at a density of 3,000 cells per well in 45 uL of standard growth media. Plates were spun in a centrifuge for 5 minutes and 1,000 RPM. Plates were incubated at 5% CO2, 37° C. for 72 hours in a tissue culture incubator. On the day of dosing, EGFR targeting BCL-xL ADCs were prepared at 1OX in standard growth media. The prepared drug treatments were then added to the cells resulting in final concentrations of 0.0005-500 nM and a final volume of 50 μL per well. Each drug concentration was tested in quadruplets. Plates were incubated at 5% CO2, 37° C. for 5 days in a tissue culture incubator.
Cell viability was assessed through the addition of 40 μL of CellTiter Glo 3D Cell Viability Assay substrate (Promega, cat #G9681), a reagent which lyses cells and measures total adenosine triphosphate (ATP) content. Wells were mixed thoroughly and plates were incubated at room temperature for 30 minutes to stabilize luminescent signals prior to reading using a luminescence reader (EnVision Multilabel Plate Reader, PerkinElmer).
To evaluate the effect of the drug treatments, luminescent counts from wells containing untreated cells (100% viability) were used to normalize treated samples. […] IC50 and Amax values were extrapolated from the resultant curves.

[1] = HCC1569, read-out: HCC1569 CTG 120 h IC50 nM + Paclitaxel 10 nM Mean N1 and N2, in the presence of 10 nM Paclitaxel, mean
[2] = HCC1569, read-out: HCC1569 CTG 120 h IC50 nM + Paclitaxel 10 nM N1, in the presence of 10 nM Paclitaxel, N1
[3] = HCC1569, read-out: HCC1569 CTG 120 h IC50 nM + Paclitaxel 10 nM N2, in the presence of 10 nM Paclitaxel, N2
[4] = HCC1569, read-out: HCC1569 CTG 120 h IC50 nM Mean N1 and N2, single agent, mean
[5] = HCC1569, read-out: HCC1569 CTG 120 h IC50 nM N1, single agent, N1
[6] = HCC1569, read-out: HCC1569 CTG 120 h IC50 nM N2, single agent, N2
[7] = experiment n1, read-out: H1650 3D CTG IC50 n1
[8] = experiment n2, read-out: H1650 3D CTG IC50 n2
[9] = mean of n1 and n2, read-out: H1650 3D CTG IC50 Mean of n1 and n2

Work on `CNCC#Cc1ccc(OCCCc2sc(N(C)c3cc(C)c(Nc4nc5ccccc5s4)nn3)nc2C(=O)O)c(F)c1` [P7, 2-[[6-(1,3-benzothiazol-2-ylamino)-5-methyl-pyridazin-3-yl]-methyl-amino]-5-[3-[2-fluoro-4-[3-(methylamino)prop-1-ynyl]phenoxy]propyl]thiazole-4-carboxylic acid] yielded an IC50 (HCC1569 cells; [1]) of 0.436 nM, an IC50 (HCC1569 cells; [2]) of 0.443 nM and an IC50 (HCC1569 cells; [3]) of 0.429 nM. The IC50 (HCC1569 cells; [4]) was 33 nM, the IC50 (HCC1569 cells; [5]) was 40.3 nM and the IC50 (HCC1569 cells; [6]) was 25.6 nM. It also gave an IC50 (H1650 cells; [7]) of 7.5 nM, an IC50 (H1650 cells; [8]) of 4.7 nM and an IC50 (H1650 cells; [9]) of 6.1 nM.
With `Cc1c(Nc2nc3ccccc3s2)nnc2c1CCCN2c1nc(C(=O)O)c(CCCOc2ccc(C#CC[N+](C)(C)Cc3ccc(NC(=O)[C@H](CCCNC(N)=O)NC(=O)[C@@H](NC(=O)CCOCCN4C(=O)CC(C)C4=O)C(C)C)cc3CN(C)C(=O)OCc3cn(CCOCCOCCOCCOCCOCCOCCOCCOCCC(=O)O)nn3)cc2F)s1` (mixture of isomers) [EGFR1-L3A-P1] the “NCI-H1650 Amax (Span)” value (NCI-H1650) was over 100 and the IC50 (NCI-H1650) was under 0.686 nM.
Work on `Cc1c(Cc2nc3ccccc3s2)nnc2c1CCCN2c1nc(C(=O)O)c(CCCOc2ccc(C#CCN(C)C(=O)OCc3ccc(NC(=O)[C@H](CCCNC(N)=O)NC(=O)[C@@H](NC(=O)CCOCCN4C(=O)CC(C)C4=O)C(C)C)cc3CN(Cc3cn(CCOCCOCCOCCOCCOCCOCCOCCOCCC(=O)O)nn3)C(=O)OCc3cn(CCOCCOCCOCCOCCOCCOCCOCCOCCC(=O)O)nn3)cc2F)s1` (mixture of isomers) [EGFR1-L10C-P3] yielded an IC50 (NCI-H1650) of under 18.5 nM.
`Cc1c(Nc2nc3ccccc3s2)nnc2c1CCCN2c1nc(C(=O)O)c(CCCOc2ccc(C#CC[N+](C)(C)Cc3ccc(NC(=O)[C@H](CCCNC(N)=O)NC(=O)[C@@H](NC(=O)CCOCCN4C(=O)CC(C)C4=O)C(C)C)cc3COCc3cn(CCOCCOCCOCCOCCOCCOCCOCCOCCC(=O)O)nn3)cc2F)s1` (mixture of isomers) [EGFR1-L7A-P1] showed an IC50 (NCI-H1650) of under 0.686 nM.
`Cc1cc(N(CCCC(O)C[N+](C)(C)CCCS(=O)(=O)O)c2nc(C(=O)O)c(CCCOc3ccc(C#CCN(C)C(=O)OCc4ccccc4CN(C)C(=O)OCc4cn(CCOCCOCCOCCOCOCCOCCOCCOCCCC(=O)O)nn4)cc3F)s2)nnc1Nc1nc2ccccc2s1` (stereo not drawn) [EGFR1-L3C-P4] gave an IC50 (NCI-H1650) of over 500 nM.
`Cc1c(Nc2nc3ccccc3s2)nnc2c1CCCN2c1ccc(-c2cnn(CC34CC5(C)CC(C)(C3)CC(OCCN(CCCO)C(=O)OCc3ccc(NC(=O)[C@H](CCCNC(N)=O)NC(=O)[C@@H](NC(=O)CCOCCN6C(=O)C=CC6=O)C(C)C)cc3CN(C)C(=O)CCOCCOCCOCCOCCOCCOCCOCCOCCOCCOCCOCCOCCOCCOCCOCCOCCOCCOCCOCCOCCOCCOCCOCCOCCOCCC(=O)O)(C5)C4)c2C)c(C(=O)O)n1` [L11C-P25] was tested, and the “NCI-H1650 IC50 (nM)” value (NCI-H1650) was “among the most potent”.
Compound `Cc1cc(N(CCCC(O)C[N+](C)(C)C)c2nc(C(=O)O)c(CCCOc3ccc(C#CCN(C)C(=O)OCc4ccc(NC(=O)[C@H](CCCNC(N)=O)NC(=O)[C@@H](NC(=O)CCOCCN5C(=O)CC(C)C5=O)C(C)C)cc4CN(C)C(=O)OCc4cn(CCOCCOCCOCCOCCOCCOCCOCCOCCC(=O)O)nn4)cc3F)s2)nnc1Nc1nc2ccccc2s1` (mixture of isomers) [EGFR1-L3C-P5] has an IC50 (NCI-H1650) of over 500 nM.
Compound `COCCOCCOCCOCCOCCOCCOCCOCCn1cc(COC(=O)N(Cc2cn(CCOCCOCCOCCOCCOCCOCCOCCOC)nn2)Cc2cc(NC(=O)[C@H](CCCNC(N)=O)NC(=O)[C@@H](NC(=O)CCOCCN3C(=O)CC(C)C3=O)C(C)C)ccc2C[N+](C)(C)CC#Cc2ccc(OCCCc3sc(N4CCCc5c4nnc(Nc4nc6ccccc6s4)c5C)nc3C(=O)O)c(F)c2)nn1` (mixture of isomers) [EGFR1-L1A-P1] has an IC50 (NCI-H1650) of under 0.686 nM.
With `COCCOCCOCCOCCOCCOCCOCCOCCn1cc(COC(=O)N(Cc2cn(CCOCCOCCOCCOCCOCCOCCOCCOC)nn2)Cc2cc(NC(=O)[C@H](CCCNC(N)=O)NC(=O)[C@@H](NC(=O)CCOCCN3C(=O)CC(C)C3=O)C(C)C)ccc2C[N+](C)(C)CC#Cc2ccc(OCCCc3sc(N(C)c4cc(C)c(Nc5nc6ccccc6s5)nn4)nc3C(=O)O)c(F)c2)nn1` (mixture of isomers) [EGFR1-L1A-P2] the IC50 (NCI-H1650) was under 6.17 nM.
`Cc1cc(N(CCCN(C)C)c2nc(C(=O)O)c(CCCOc3ccc(C#CCN(C)C(=O)OCc4ccc(NC(=O)[C@H](CCCNC(N)=O)NC(=O)[C@@H](NC(=O)CCOCCN5C(=O)CC(C)C5=O)C(C)C)cc4COCc4cn(CCOCCOCCOCCOCCOCCOCCOCCOCCC(=O)O)nn4)cc3F)s2)nnc1Nc1nc2ccccc2s1` (mixture of isomers) [EGFR1-L7C-P6] gave an IC50 (NCI-H1650) of over 500 nM.
For `Cc1c(Nc2nc3ccccc3s2)nnc2c1CCCN2c1nc(C(=O)O)c(CCCOc2ccc(C#CCN(C)C(=O)OCc3ccc(NC(=O)[C@H](CCCNC(N)=O)NC(=O)[C@@H](NC(=O)CCOCCN4C(=O)CC(C)C4=O)C(C)C)cc3COCc3cn(CCOCCOCCOCCOCCOCCOCCOCCOCCC(=O)O)nn3)cc2F)s1` (mixture of isomers) [EGFR1-L7C-P3], the IC50 (NCI-H1650) was under 6.17 nM.
With `Cc1cc(N(C)c2nc(C(=O)O)c(CCCOc3ccc(C#CC[N+](C)(C)Cc4ccc(NC(=O)[C@H](CCCNC(N)=O)NC(=O)[C@@H](NC(=O)CCOCCN5C(=O)CC(C)C5=O)C(C)C)cc4CN(Cc4cn(CCOCCOCCOCCOCCOCCOCCOCCOCCC(=O)O)nn4)C(=O)OCc4cn(CCOCCOCCOCCOCCOCCOCCOCCOCCC(=O)O)nn4)cc3F)s2)nnc1Nc1nc2ccccc2s1` (mixture of isomers) [EGFR1-L10A-P2] the IC50 (NCI-H1650) was under 6.17 nM.
Compound `Cc1cc(N(CCCC(O)C[N+](C)(C)CCS(=O)(=O)O)c2nc(C(=O)O)c(CCCOc3ccc(C#CCN(C)C(=O)OCc4ccc(NC(=O)[C@H](CCCNC(N)=O)NC(=O)[C@@H](NC(=O)CCOCCN5C(=O)CC(C)C5=O)C(C)C)cc4)cc3F)s2)nnc1Nc1nc2ccccc2s1` (mixture of isomers) [EGFR1-L9C-P4] has an IC50 (NCI-H1650) of over 500 nM.
Compound `Cc1cc(N(C)c2nc(C(=O)O)c(CCCOc3ccc(C#CCN(C)C)cc3F)s2)nnc1Nc1nc2ccccc2s1` [P2, 2-[[6-(1,3-benzothiazol-2-ylamino)-5-methyl-pyridazin-3-yl]-methyl-amino]-5-[3-[4-[3-(dimethylamino)prop-1-ynyl]-2-fluoro-phenoxy]propyl]thiazole-4-carboxylic acid] has an IC50 (HCC1569 cells; [1]) of 0.111 nM, an IC50 (HCC1569 cells; [2]) of 0.126 nM and an IC50 (HCC1569 cells; [3]) of 0.096 nM. It also gave an IC50 (HCC1569 cells; [4]) of 12.4 nM, an IC50 (HCC1569 cells; [5]) of 13.1 nM and an IC50 (HCC1569 cells; [6]) of 11.7 nM. For the same compound, the IC50 (H1650 cells; [7]) was 1.06 nM, the IC50 (H1650 cells; [8]) was 1.9 nM and the IC50 (H1650 cells; [9]) was 1.48 nM.
Compound `Cc1cc(N(CCCC(O)C[N+](C)(C)C)c2nc(C(=O)O)c(CCCOc3ccc(C#CCN(C)C(=O)OCc4ccc(NC(=O)[C@H](CCCNC(N)=O)NC(=O)[C@@H](NC(=O)CCOCCN5C(=O)CC(C)C5=O)C(C)C)cc4)cc3F)s2)nnc1Nc1nc2ccccc2s1` (mixture of isomers) [EGFR1-L9C-P5] has an IC50 (NCI-H1650) of over 500 nM.
In the case of `Cc1c(Nc2nc3ccccc3s2)nnc2c1CCCN2c1ccc(-c2cnn(CC34CC5(C)CC(C)(C3)CC(OCCN(CC[C@H](O)CO)C(=O)OCc3ccc(NC(=O)[C@H](CCCNC(N)=O)NC(=O)[C@@H](NC(=O)CCOCCN6C(=O)C=CC6=O)C(C)C)cc3CN(C)C(=O)CCOCCOCCOCCOCCOCCOCCOCCOCCOCCOCCOCCOCCOCCOCCOCCOCCOCCOCCOCCOCCOCCOCCOCCOCCOCCC(=O)O)(C5)C4)c2C)c(C(=O)O)n1` [L11C-P19], the “NCI-H1650 IC50 (nM)” value (NCI-H1650) is reported as “among the most potent”.
